Earlier results on 7 compounds are cited in patent US10799449B2, “Medicinal delivery system and related methods” (JSRNTI, LLC, priority 2006, dated 2020).

The conditions of series [1]: in water.

For `OC[C@@H](O)[C@@H](O[C@@H]1O[C@H](CO)[C@H](O)[C@H](O)[C@H]1O)[C@H](O)[C@@H](O)CO` [Lactitol], in series [1], the Solubility is given as 55 grams/100 grams water. On to `OC[C@@H](O)[C@@H](O[C@H]1O[C@H](CO)[C@@H](O)[C@H](O)[C@H]1O)[C@H](O)[C@@H](O)CO` [Maltitol], for which the Solubility in series [1] was 71 grams/100 grams water.

Turning to `OC[C@@H](O)[C@@H](O)[C@H](O)[C@H](O)CO` [Mannitol], the Solubility in series [1] was 23 grams/100 grams water. With `CN1CCCC1c1cccnc1` (stereo not drawn) [Nicotine], the “Available nicotine in an un-ionized state” value (buffered saliva pH of 9.0) is “approximately 91%”. Further, where the note is “weak base”, the pKa entry was “approximately 8.0”. Also, the “Available nicotine in the un-ionized form” value (without buffer, normal saliva pH of 6.5) is reported as 3%. As to `OC[C@@H](O)[C@@H](O)[C@H](O)[C@@H](O)CO` [Sorbitol], the Solubility in series [1] is reported as 75 grams/100 grams water. For `OC[C@@H](O)[C@H](O)[C@@H](O)CO` [Xylitol], in series [1], the Solubility is listed as 70 grams/100 grams water. Regarding Isomalt, in series [1], the Solubility was 38 grams/100 grams water.
